“And” between values parts separate entries of the source, which are not always exact repeats. Equal entries are not always repeated. “Also recorded” adds a separate entry of the source. Marks after values point to notes of the source that are not given here.
Experiments:
[1] = tested on: Haemophilus influenzae nontypeable bacterium strain adhering to Detroit 562 human pharynx carcinoma cells (DT 562); assay: Inhibition of adhesion of 111-In radiolabeled Haemophilus influenzae to DT 562 human pharynx cells; assay type: cell-based; details: for Activity in adhesion bioassay (in words): adhesion of H. influenzae to human pharynx cells
Description: To determine the ability of various phosphoinositides to prevent the adhesion of Haemophilus influenzae to human nasopharynx cells, the following procedure was used. Detroit 562 human pharynx carcinoma cells (DT 562) were obtained from the American Culture Type Collection. A Haemophilus influenzae nontypeable bacterium strain, which was isolated from the middle ear of an infected child, was obtained from Dr. Lauren Bakaletz of The Ohio State University in Columbus, Ohio.
The DT 562 cells were seeded into Costar 96 well plates at a density of 20,000 to 25,000 cells per well and were cultured in Dulbeco's modified Eagle Medium, available from Grand Island Biological Company. The cells were supplemented with 10% fetal bovine serum (FBS), available from Hyclone. The plates were incubated in a humidified atmosphere of 95% air and 5% carbon dioxide at 37° C. Plates containing cells were washed three times with 20 μL of Hanks Balanced Saline Solution (HBSS), available from Sigma Chemical Company of St. Louis, Mo., to remove serum proteins before the addition of bacteria in adhesion assays.
Haemophilus influenzae was streaked onto Chocolate agar plates, available from Becto Dickinson Diagnostic Instrument System of Sparks, Maryland, from frozen aliquots of a low passage number. The plates were then incubated at 37° C. in a humidified atmosphere of 95% air and 5% carbon dioxide for 18 hours to obtain logarithmically growing cultures. Bacteria harvested in phosphate buffered solution (PBS) supplemented with 0.05% bovine serum albumin (BSA), available from Miles Inc. of Kankakee, Ill., were centrifuged and resuspended in a volume of PBS/BSA yielding an optical density of 2.4 at a wavelength of 660 nm. ^111-Indium-oxine (^111-In), a high-energy, short-lived tracer was utilized to radiolabel the bacteria. Fifty μCi of ^111-In solution was added to 2.5 mL of the bacterial suspension and incubated for 20 minutes at 37° C. The radiolabeled bacteria were then washed two times with 10 mL HBSS to remove unbound ^111-In and resuspended in 5 mL HBSS supplemented with 30 mM 2-hydroxyethylpiperazine-N′-2-ethane sulfonic acid buffer, available from Life Technologies, a producer of Gibco BRL Products, of Grand Island, N.Y. Twenty-five μL of the ^111-In labeled bacterial suspension was preincubated with 25 μL of the test chemical in a polypropylene 96 well plate, available from Costar, for 15 minutes at 37° C. to allow binding of the test agent to the Haemophilus influenzae bacterium.
To determine the adhesion quantitation, the following procedure was used. Twenty-five μL of the preincubation mixture containing radiolabeled bacteria and the test chemical were pipetted into each well of the assay plate containing DT 562 cells. The assay plate was incubated for about 15 to about 20 minutes at 37° C. to allow adhesion of the bacteria to the cell monolayer. Nonadherent bacteria were removed by washing the plate three times in HBSS. The assay was terminated by the addition of 100 μL of 0.05 N sodium hydroxide to disrupt the cell monolayer and the adhering of the Haemophilus influenzae bacterium. The contents of each well were then placed in Cobra polypropylene tubes and counted on a Cobra Gamma Counter, available from Packard Bell. After background radiation was subtracted from each well, the average count of four replicates (per sample) was calculated. Results are presented in Table 1 as the percent of inhibition of bacterial adhesion, as compared to bacterial attachment, in control wells containing no test chemical and in which the percent of inhibition is zero.

[2] = tested on: nontypeable Haemophilus influenzae; assay: Neonatal rat model of nasopharyngeal colonisation by nontypeable Haemophilus influenzae; assay type: in vivo; details: for H.I. Recovered Log10 (CFU/mL): intranasal, nasal wash 24 hours after administration, 10 rat pups per group
Procedure: The attachment of Haemophilus influenzae to a mammal's nasopharynx area is believed to be the first stage of a bacterial infection which can lead to otitis media and other disorders and diseases caused by Haemophilus influenzae. A neonatal rat model was used to test the in vivo activity of phosphoinositides, and more specifically PI-3,4-PP, against nontypeable Haemophilus influenzae .
In the test, overnight cultures of nontypeable Haemophilus influenzae were prepared, washed twice and diluted with HBSS to obtain a bacterial suspension of less than 100,000 colony forming units (CFU) per mL. Sample solutions of the PI-3,4-PP were prepared by dissolving in HBSS at 2 mg/mL. The sample solution was mixed with an equal volume (0.5 mL) of the diluted bacterial suspension and incubated for one hour at 37° C. A bacterial control was prepared by mixing and incubating 0.5 mL HBSS with an equal volume of the diluted bacterial suspension. A solvent blank was prepared by incubating 1 mL of HBSS under the same conditions.
In the test, the experimental and control mixtures were used to inoculate 24-hour-old or younger rat pups at 10 μL each intranasally. Twenty-four hours after administration, samples of nasopharyngeal fluid were obtained by the slow instillation of 25 μL of HBSS into the left naris and the initial 10 μL discharge from the right naris was collected for plate count. This procedure insured that the fluid had passed through the nasopharynx. The nasal wash was then spread, or diluted and then spread, onto chocolate agar plates. The plates were incubated at 37° C. overnight and counted for the number of CFU's, an indicator of the number of viable bacteria.

[3] = Test Level 0.1 mg/mL, vs control wells without test chemical, average of four replicates

| Compound | % Inhibition of bacterial adhesion [1, 3] | Activity in adhesion bioassay (in words) [1] | other results |
| --- | --- | --- | --- |
| 1-D-myo-inositol-1,2,6-triphosphate sodium salt [I-1,2,6-PPP, reference compound] | 6* % | inactive |  |
| 1-D-myo-inositol-1,3,4-triphosphate sodium salt [I-1,3,4-PPP, reference compound] | −1% | inactive |  |
| O=P([O-])(OCC(O)CO)OC1C(O)C(O)C(O)C(O)C1O.[Li+] [GPI, 1-(a-glycerophosphopoyl)-D-myo-insoitol lithium salt, reference compound] |  | inactive | % Inhibition of bacterial adhesion ([1]; Test Level 0.5 mg/mL): −3% |
| L-a-phosphatidylinositol ammonium salt [PI, reference compound] | −2% | inactive |  |
| L-a-phosphatidylinositol-4-monophosphate sodium salt [PI-4-P] | 24% | lower level of activity |  |
| dipalmitoylphosphatidylinositol-3,4-diphosphate ammonium salt [PI-3,4-PP] |  | especially active | H.I. Recovered Log10 (CFU/mL) ([2]; Trial 1, inoculum dose 53 CFU/pup, 1 mg/mL PI-3,4-PP): 1.34 ± 0.58 Log10 (CFU/mL); Reduction in the number of bacteria recovered vs untreated group (HI+HBSS) ([2]; Trial 2, 1 mg/mL PI-3,4-PP, inoculum dose 630-720 CFU/pup): 0.6 log; H.I. Recovered Log10 (CFU/mL) ([2]; Trial 2, inoculum dose 630 CFU/pup, 1 mg/mL PI-3,4-PP): 2.54 ± 1.08 Log10 (CFU/mL); Mode of in vivo activity (in words) ([2]; neonatal rats, nasopharynx, ammonium salt): not bactericidal; also recorded: inhibits the attachment of nontypeable Haemophilus influenzae to nasopharyngeal cells of neonatal rats; % Inhibition of bacterial adhesion ([1]; Test Level 0.006 mg/mL): 31%; % Inhibition of bacterial adhesion ([1]; Test Level 0.013 mg/mL): 33%; % Inhibition of bacterial adhesion ([1]; Test Level 0.025 mg/mL): 58%; % Inhibition of bacterial adhesion ([1]; Test Level 0.050 mg/mL, ammonium salt): 80%; % Inhibition of bacterial adhesion ([1]; Test Level 0.050 mg/mL, listed as PI-3,4-P, ammonium salt): about 80%; % Inhibition of bacterial adhesion ([1]; Test Level 0.1 mg/mL, vs control wells without test chemical, average of four replicates, ammonium salt): 74% and 81%; Lowest concentration at which activity was exhibited ([1]; adhesion inhibition, dose response): 0.006 mg/mL |
| dipalmitoylphosphatidylinositol-3-phosphate ammonium salt [PI-3-P] | 24% | lower level of activity |  |

Source: patent US6447797B2, “Antibacterial phosphoinositides” (Abbott Laboratories, priority 1998, dated 2002)
